In patent US8455649B2, “Insecticidal substituted azinyl derivatives” (Dow AgroSciences, LLC, priority 2007, dated 2013) one finds mortality data, which are given here for 18 compounds.

Assay [1] relates to Corn Earworm (Helicoverpa zea). Kind of assay: Insecticidal diet-surface test for corn earworm. The following applies: 120 h, second-instar larvae on treated diet, 50 μg/cm^2 on diet surface, 5 days after treatment, 8 insects per treatment, read-out: HELIZE AVG % Mortality (50 μg/cm^2). The class given is in vivo. As to the method: (§1) The compounds identified in Table 1 were tested against beet armyworm and corn earworm as follows:
(§2) Insecticidal Test for Corn Earworm (Helicoverpa zea) and Beet Armyworm (Spodoptera exigua).
(§3) To prepare test solution, the test compound was formulated at 2000 ppm solution as 4 mg/2 mL of 9 acetone:1 tap water. 50 μL of the 2000 ppm (equivalent to 50 μg/cm^2 dose on diet surface area) test solution was pipetted upon the surface of 1 mL of lepidopteran diet (Southland Multi-Species Lepidopteran Diet) contained in each of eight wells per insect species (one well=1 replication). A second-instar corn earworm and beet armyworm was placed upon the treated diet in each well once the solvent had air-dried. Trays containing the treated diet and larvae were covered and then held in a growth chamber at 25° C., 50-55% RH, and 16 hr light:8 hr dark for 5 days. Observation were conducted 5 days after treatment and infestation. The number of dead insects of 8 per species per treatment was then determined and the results are given in Table 2 as a percent control at a dose of […].

Assay [2] has as its system Beet Armyworm (Spodoptera exigua). Nature of the assay: Insecticidal diet-surface test for beet armyworm. The class given is in vivo. The following applies: 120 h, second-instar larvae on treated diet, 50 μg/cm^2 on diet surface, 5 days after treatment, 8 insects per treatment, read-out: LAPHEG AVG % Mortality (50 μg/cm^2). As to the method: as §1, §2, §3

Turning to `CN(C(=O)Nc1nc(OCC(F)(F)F)cc(OCC(F)(F)F)n1)c1ccc(OCC(F)F)cc1` [Compound 71], the mortality at 50 µg/cm2 in assay [1] and in assay [2] was 100% throughout.
For the compound `CN(C(=O)Nc1nc(OCC(F)(F)F)cc(OCC(F)(F)F)n1)c1ccc(C#N)cc1` [Compound 83], the mortality at 50 µg/cm2 in assay [1] and in assay [2] was 100% each time.
For `O=C(Nc1ccc(OC(F)=C(Cl)Cl)cc1)Nc1nc(OCC(F)(F)F)cc(OCC(F)(F)F)n1` [Compound 16], the mortality at 50 µg/cm2 in assay [1] is 0%; in assay [2] it was 100%.
As for `O=C(Nc1cc(F)c(C(F)(F)F)c(F)c1)Nc1nc(OCC(F)(F)F)cc(OCC(F)(F)F)n1` [Compound 76], the mortality at 50 µg/cm2 in assay [1] and in assay [2] was 100% each time.
For `CN(C(=O)Nc1nc(OCC(F)(F)F)nc(OCC(F)(F)F)n1)c1ccc(Cl)cc1` [Compound 121, N′-[4,6-bis(2,2,2-trifluoroethoxy)-1,3,5-triazin-2-yl]-N-(4-chlorophenyl)-N-methylurea], the mortality at 50 µg/cm2 in assay [1] and in assay [2] was 100% throughout.
For the compound `CN(C(=O)Nc1nc(OCC(F)(F)F)cc(OCC(F)(F)F)n1)c1ccc([N+](=O)[O-])cc1` [Compound 79], the mortality at 50 µg/cm2 in assay [1] and in assay [2] was 100% throughout.
With `COCN(C(=O)N(COCc1ccccc1)c1nc(OCC(F)(F)F)cc(OCC(F)(F)F)n1)c1ccc(Br)cc1` [Compound 68], the mortality at 50 µg/cm2 in assay [1] and in assay [2] was 100% each time.
`CN(C(=O)Nc1nc(OCC(F)(F)F)cc(OCC(F)(F)F)n1)c1ccc(Cl)cc1` [Compound 21]: the mortality at 50 µg/cm2 in assay [1] and in assay [2] was 100% in each case.
With `CCOCN(C(=O)Nc1nc(OCC(F)(F)F)cc(OCC(F)(F)F)n1)c1ccc(C(F)(F)F)cc1` [Compound 34, N′-[4,6-Bis(2,2,2-trifluoroethoxy)pyrimidin-2-yl]-N-ethoxymethyl-N-(4-trifluoromethylphenyl)urea], the mortality at 50 µg/cm2 in assay [1] and in assay [2] was 100% in each case.
With `CN(C(=O)Nc1nc(OCC(F)(F)F)cc(OCC(F)(F)F)c1F)c1ccc(OC(F)(F)F)cc1` [Compound 185], the mortality at 50 µg/cm2 in assay [1] and in assay [2] was 100% in each case.
With `O=C(Nc1cc(OCC(F)(F)F)nc(OCC(F)(F)F)n1)N(CCF)c1ccc(OC(F)(F)F)cc1` [Compound 114], the mortality at 50 µg/cm2 in assay [1] and in assay [2] was 100% throughout.
On to `O=C(Nc1nc(OCC(F)(F)F)cc(OCC(F)(F)F)n1)Nc1c(Cl)cc(OC(F)(F)F)cc1Cl` [Compound 178], for which the mortality at 50 µg/cm2 in assay [1] and in assay [2] was 100% throughout.
For the compound `CC(=O)OCN(C(=O)Nc1nc(OCC(F)(F)F)cc(OCC(F)(F)F)n1)c1ccc(C(F)(F)F)cc1` [Compound 38], the mortality at 50 µg/cm2 in assay [1] and in assay [2] was 100% in each case.
In the case of `CN(C(=O)Nc1nc(OCC(F)(F)F)cc(OCC(F)(F)F)n1)c1ccc(C(F)(F)F)cc1Cl` [Compound 160], the mortality at 50 µg/cm2 in assay [1] and in assay [2] was 100% each time.
Take `CN(C(=S)Nc1nc(OCC(F)(F)F)cc(OCC(F)(F)F)n1)c1ccc(C(F)(F)F)nc1` [Compound 133]: the mortality at 50 µg/cm2 in assay [1] and in assay [2] was 100% each time.
`CN(C(=O)Nc1nc(OCC(F)(F)F)cc(OCC(F)(F)F)n1)c1ccc(C(F)(F)F)nc1` [Compound 47]: the mortality at 50 µg/cm2 in assay [1] and in assay [2] was 100% throughout.
Take `N#Cc1ccc(NC(=O)Nc2nc(OCC(F)(F)F)cc(OCC(F)(F)F)n2)cc1` [Compound 4]: the mortality at 50 µg/cm2 in assay [1] turned out to be 100%; in assay [2], 0%.
As to `O=C(Nc1ccc(OCC(F)F)cc1)Nc1nc(OCC(F)(F)F)cc(OCC(F)(F)F)n1` [Compound 15], the mortality at 50 µg/cm2 in assay [1] worked out at 50%; in assay [2], 75%.
